We go through 11 compounds from patent publication US7915022B2, “Carbonyl reductase, gene thereof and method of using the same” (priority 2004, dated 2011).

For test [1], the system named is polypeptide consisting of the amino acid sequence shown in SEQ ID NO: 4 (carbonyl reductase), cell-free extract of E. coli HB101 (pNTOM4). Put plainly: Substrate specificity of polypeptide produced by transformant E. coli HB101 (pNTOM4). The test is classed as biochemical, Ogataea minuta var. minuta NBRC0975. The conditions noted are these: 1 mM substrate, 0.25 mM NADPH, pH 6.5, 30° C., 1 min; relative to activity on CBPB as 100%. The method, then: (§1) In 100 mM phosphate buffer (pH 6.5) containing 0.33% (v/v) dimethyl sulfoxide were dissolved a carbonyl compound to be a substrate to a final concentration of 1 mM, and a coenzyme NADPH to a final concentration of 0.25 mM, respectively. Thereto was added a cell-free extract of E. coli HB101 (pNTOM4) or E. coli HB101 (pNTOM3) prepared in Example 7, and the mixture was reacted at 30° C. for 1 min. The reduction activity on each carbonyl compound was calculated from the rate of decrease in the absorbance of the reaction mixture at a wavelength of 340 nm, and shown in Table 2 as a value relative to the activity on (3S)-1-chloro-3-tert-butoxycarbonylamino-4-phenyl-2-butanone as 100%.

Test [2] concerns polypeptide consisting of the amino acid sequence shown in SEQ ID NO: 3 (carbonyl reductase), cell-free extract of E. coli HB101 (pNTOM3). The experiment in a line: Substrate specificity of polypeptide produced by transformant E. coli HB101 (pNTOM3). The conditions noted are these: 1 mM substrate, 0.25 mM NADPH, pH 6.5, 30° C., 1 min; relative to activity on CBPB as 100%. Type of test: biochemical, Ogataea minuta var. minuta NBRC0975. The method, then:
as §1

Consider `CC(=O)CC(=O)OC(C)(C)C` [tert-butyl acetoacetate], for which the “relative activity (%) E. coli HB101 (pNTOM4)” value in test [1] is 2%. The “relative activity (%) E. coli HB101 (pNTOM3)” value in test [2] amounted to 1330%.

In the case of `CCOC(=O)C(Cl)C(C)=O` (stereo not shown) [ethyl 2-chloroacetoacetate], the “relative activity (%) E. coli HB101 (pNTOM4)” value in test [1] turned out to be 40%. Moreover, the “relative activity (%) E. coli HB101 (pNTOM3)” value in test [2] is listed as 3309%.

Turning to `CCCC=O` [n-butylaldehyde], the “relative activity (%) E. coli HB101 (pNTOM4)” value in test [1] amounted to 0%. Moreover, in test [2], the “relative activity (%) E. coli HB101 (pNTOM3)” value was 168%.

For the compound `CC(=O)CCc1ccccc1` [benzylacetone], in test [1], the “relative activity (%) E. coli HB101 (pNTOM4)” value stood at 0%. The “relative activity (%) E. coli HB101 (pNTOM3)” value in test [2] is given as 66%.

Take `O=Cc1cccc([N+](=O)[O-])c1` [m-nitrobenzaldehyde]: in test [1], the “relative activity (%) E. coli HB101 (pNTOM4)” value came to 29%. Besides, the “relative activity (%) E. coli HB101 (pNTOM3)” value in test [2] is listed as 851%.

Regarding `CCOC(=O)CC(=O)CCl` [ethyl 4-chloroacetoacetate], in test [1], the “relative activity (%) E. coli HB101 (pNTOM4)” value is reported as 22%. The “relative activity (%) E. coli HB101 (pNTOM3)” value in test [2] is listed as 4547%.

Turning to `CC(=O)c1ccccc1` [acetophenone], the “relative activity (%) E. coli HB101 (pNTOM4)” value in test [1] stood at 0%. For the same compound, the “relative activity (%) E. coli HB101 (pNTOM3)” value in test [2] came to 215%.

As for `O=Cc1ccccc1[N+](=O)[O-]` [o-nitrobenzaldehyde], in test [1], the “relative activity (%) E. coli HB101 (pNTOM4)” value was determined as 89%. Also, the “relative activity (%) E. coli HB101 (pNTOM3)” value in test [2] is 1621%.

`CCOC(=O)CC(=O)CN=[N+]=[N-]` [ethyl 4-azideacetoacetate]: the “relative activity (%) E. coli HB101 (pNTOM4)” value in test [1] worked out at 1%. Further, the “relative activity (%) E. coli HB101 (pNTOM3)” value in test [2] was found to be 659%.

As to `CC(=O)c1cccnc1` [3-acetylpyridine], the “relative activity (%) E. coli HB101 (pNTOM4)” value in test [1] is listed as 0%. Moreover, the “relative activity (%) E. coli HB101 (pNTOM3)” value in test [2] amounted to 15%.

Take `COc1ccc(C(C)=O)cc1OC` [3′,4′-dimethoxyacetophenone]: the “relative activity (%) E. coli HB101 (pNTOM4)” value in test [1] is 4%. Besides, in test [2], the “relative activity (%) E. coli HB101 (pNTOM3)” value was found to be 51%.
